Assay results published in patent publication US8309552B2, “Immunomodulating heterocyclic compounds” (Medigene AG, priority 2003, dated 2012).

target: T1, CD80-CD28 interaction (Homo sapiens, UniProt P33681); experiment: Homogenous Time Resolved Fluorescence (HTRF) assay, cell free; type: binding; settings: cell-free HTRF, compound concentration series 100 μM-1.7 nM, 4 hours at room temperature; read-out: Activity (EC50 in the HTRF assay)
T1 sequence (P33681 35-242 limits assumed): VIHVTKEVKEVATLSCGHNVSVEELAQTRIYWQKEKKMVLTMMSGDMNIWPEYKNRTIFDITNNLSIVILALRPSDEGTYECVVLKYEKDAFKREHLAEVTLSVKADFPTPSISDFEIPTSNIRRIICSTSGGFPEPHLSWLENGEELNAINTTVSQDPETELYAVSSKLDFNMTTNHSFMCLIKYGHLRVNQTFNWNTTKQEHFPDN
Method: Homogenous Time Resolved Fluorescence Assay
The examples described above were tested in a cell free Homogenous Time Resolved Fluorescence (HTRF) assay to determine their activity as inhibitors of the CD80-CD28 interaction.
In the assay, europium and allophycocyanin (APC) are associated with CD28 and CD80 indirectly (through antibody linkers) to form a complex, which brings the europium and APC into close proximity to generate a signal. The complex comprises the following six proteins: fluorescent label 1, linker antibody 1, CD28 fusion protein, CD80 fusion protein, linker antibody 2, and fluorescent label 2. The table below describes these reagents in greater detail.
On formation of the complex, europium and APC are brought into proximity and a signal is generated.
Non-specific interaction was measured by substituting a mouse Fab fragment (C215) for the CD80 mouse Fab fragment fusion protein (1.9 μg/ml). The assay was carried out in black 384 well plates in a final volume of 30 μl. Assay buffer: 50 mM Tris-HCl, 150 mM NaCl pH7.8, containing 0.1% BSA (w/v) added just prior to use.
Compounds were added to the above reagents in a concentration series ranging between 100 μM-1.7 nM. The reaction was incubated for 4 hours at room temperature. Dual measurements were made using a Wallac Victor 1420 Multilabel Counter. First measurement: excitation 340 nm, emission 665 nm, delay 50 μs, window time 200 μs. second measurement: excitation 340 nm, emission 615 nm, delay 50 μs, window time 200 μs. Counts were automatically corrected for fluorescence crossover, quenching and background. The EC50 activities of compounds tested are recorded as: EC50:*=>10 μM,**=1-10 μM,***=<1 μM.

`COCCCNC(=O)Nc1ccc(-n2[nH]c3c(nnc4ccccc43)c2=O)cc1` [Example 133] and `COCCNC(=O)Nc1ccc(-n2[nH]c3c(nnc4ccccc43)c2=O)cc1` [Example 140] fall in the same range of EC50: 1000 to 10000 nM for the first, 1000 to 10000 nM for the second.

`O=C(NCCCNC1CCCCC1)Nc1ccc(-n2[nH]c3c(nnc4ccccc43)c2=O)cc1` [Example 134] and `CC1CCCCN1CCCNC(=O)Nc1ccc(-n2[nH]c3c(nnc4ccccc43)c2=O)cc1` (stereo not shown) [Example 186] cannot be ordered by EC50: less than 1000 nM for the first, less than 1000 nM for the second.

Compared with `CN1C(C)(C)CC(NC(=O)Nc2ccc(-n3[nH]c4c(nnc5ccccc54)c3=O)cc2)CC1(C)C` [Example 135], `CN1CCC(NC(=O)Nc2ccc(-n3[nH]c4c(nnc5ccccc54)c3=O)cc2)CC1` [Example 183] is lower in EC50: 1000 to 10000 nM for the first, less than 1000 nM for the second. The second is the more potent here.

First: CC(CCCC(C)(C)O)NC(=O)Nc1ccc(-n2[nH]c3c(nnc4ccccc43)c2=O)cc1 (stereo not shown) [Example 137]
Second: CCCCCC(C)NC(=O)Nc1ccc(-n2[nH]c3c(nnc4ccccc43)c2=O)cc1 (stereo not shown) [Example 181]
The EC50 of the first is lower: 1000 to 10000 nM for the first, greater than 10000 nM for the second.

Compared with `CC(C)CNC(=O)Nc1ccc(-n2[nH]c3c(nnc4ccccc43)c2=O)cc1` [Example 138], `CC(C)NCCNC(=O)Nc1ccc(-n2[nH]c3c(nnc4ccccc43)c2=O)cc1` [Example 141] is lower in EC50: 1000 to 10000 nM for the first, less than 1000 nM for the second. The second is the more potent here.

`CNCCNC(=O)Nc1ccc(-n2[nH]c3c(nnc4ccccc43)c2=O)cc1` [Example 142] and `CCNCCNC(=O)Nc1ccc(-n2[nH]c3c(nnc4ccccc43)c2=O)cc1` [Example 143] cannot be ordered by EC50: less than 1000 nM for the first, less than 1000 nM for the second.

First: CCCNCCNC(=O)Nc1ccc(-n2[nH]c3c(nnc4ccccc43)c2=O)cc1 [Example 144]
Second: CCCCNC(=O)Nc1ccc(-n2[nH]c3c(nnc4ccccc43)c2=O)cc1 [Example 177]
The EC50 of the first is lower: less than 1000 nM for the first, 1000 to 10000 nM for the second. The first is the more potent here.

`O=C(NCCOCCO)Nc1ccc(-n2[nH]c3c(nnc4ccccc43)c2=O)cc1` [Example 145] and `O=C(NCCO)Nc1ccc(-n2[nH]c3c(nnc4ccccc43)c2=O)cc1` [Example 146] cannot be ordered by EC50: less than 1000 nM for the first, less than 1000 nM for the second.

First: O=C(NCCc1ccccc1)Nc1ccc(-n2[nH]c3c(nnc4ccccc43)c2=O)cc1 [Example 147]
Second: O=C(NCCCCc1ccccc1)Nc1ccc(-n2[nH]c3c(nnc4ccccc43)c2=O)cc1 [Example 188]
The EC50 of the first is lower: 1000 to 10000 nM for the first, greater than 10000 nM for the second. The first is the more potent here.

First: CC(C)NCCCNC(=O)Nc1ccc(-n2[nH]c3c(nnc4ccccc43)c2=O)cc1 [Example 148]
Second: CC(C)OCCCNC(=O)Nc1ccc(-n2[nH]c3c(nnc4ccccc43)c2=O)cc1 [Example 149]
The EC50 of the first is lower: less than 1000 nM for the first, 1000 to 10000 nM for the second. The first is the more potent here.

First: O=C(NCCCO)Nc1ccc(-n2[nH]c3c(nnc4ccccc43)c2=O)cc1 [Example 150]
Second: O=C(NCCCCCO)Nc1ccc(-n2[nH]c3c(nnc4ccccc43)c2=O)cc1 [Example 151]
The EC50 of the first is lower: less than 1000 nM for the first, 1000 to 10000 nM for the second.

Compared with `O=C(NCCNc1cccc2ccccc12)Nc1ccc(-n2[nH]c3c(nnc4ccccc43)c2=O)cc1` [Example 152], `O=C(NCCNCc1ccccc1)Nc1ccc(-n2[nH]c3c(nnc4ccccc43)c2=O)cc1` [Example 193] is lower in EC50: greater than 10000 nM for the first, less than 1000 nM for the second. The second is the more potent here.

`O=C(Nc1ccc(-n2[nH]c3c(nnc4ccccc43)c2=O)cc1)NC1CCOC1=O` (stereo not shown) [Example 153] and `O=C(Nc1ccc(-n2[nH]c3c(nnc4ccccc43)c2=O)cc1)NC1CCC(O)CC1` (stereo not shown) [Example 190] fall in the same range of EC50: 1000 to 10000 nM for the first, 1000 to 10000 nM for the second.

`COC(=O)CNC(=O)Nc1ccc(-n2[nH]c3c(nnc4ccccc43)c2=O)cc1` [Example 154] and `NC(=O)CNC(=O)Nc1ccc(-n2[nH]c3c(nnc4ccccc43)c2=O)cc1` [Example 157] fall in the same range of EC50: 1000 to 10000 nM for the first, 1000 to 10000 nM for the second.

`O=C(NCCc1ccc([N+](=O)[O-])cc1)Nc1ccc(-n2[nH]c3c(nnc4ccccc43)c2=O)cc1` [Example 155] and `O=C(NCCc1ccncc1)Nc1ccc(-n2[nH]c3c(nnc4ccccc43)c2=O)cc1` [Example 184] fall in the same range of EC50: 1000 to 10000 nM for the first, 1000 to 10000 nM for the second.

First: CCOC(=O)CCNC(=O)Nc1ccc(-n2[nH]c3c(nnc4ccccc43)c2=O)cc1 [Example 156]
Second: CCOC(=O)CCCNC(=O)Nc1ccc(-n2[nH]c3c(nnc4ccccc43)c2=O)cc1 [Example 192]
The EC50 of the first is lower: 1000 to 10000 nM for the first, greater than 10000 nM for the second. The first is the more potent here.

`CCOC(=O)C(C)NC(=O)Nc1ccc(-n2[nH]c3c(nnc4ccccc43)c2=O)cc1` (stereo not shown) [Example 158] and `CCOC(=O)CC(C)NC(=O)Nc1ccc(-n2[nH]c3c(nnc4ccccc43)c2=O)cc1` (stereo not shown) [Example 175] fall in the same range of EC50: 1000 to 10000 nM for the first, 1000 to 10000 nM for the second.

First: CCCCCCCCCCCCOCCCNC(=O)Nc1ccc(-n2[nH]c3c(nnc4ccccc43)c2=O)cc1 [Example 159]
Second: CCCCOCCCNC(=O)Nc1ccc(-n2[nH]c3c(nnc4ccccc43)c2=O)cc1 [Example 160]
The EC50 of the first is lower: less than 1000 nM for the first, greater than 10000 nM for the second. The first is the more potent here.

`CSCCCNC(=O)Nc1ccc(-n2[nH]c3c(nnc4ccccc43)c2=O)cc1` [Example 161] and `CSCCNC(=O)Nc1ccc(-n2[nH]c3c(nnc4ccccc43)c2=O)cc1` [Example 178] fall in the same range of EC50: 1000 to 10000 nM for the first, 1000 to 10000 nM for the second.

First: CC(C)(C)OC(=O)NCCCCCCNC(=O)Nc1ccc(-n2[nH]c3c(nnc4ccccc43)c2=O)cc1 [Example 163]
Second: CC(O)CCNC(=O)Nc1ccc(-n2[nH]c3c(nnc4ccccc43)c2=O)cc1 (stereo not shown) [Example 171]
The EC50 of the first is higher: 1000 to 10000 nM for the first, less than 1000 nM for the second.

Going from `CCOC(=O)C1CCCC1NC(=O)Nc1ccc(-n2[nH]c3c(nnc4ccccc43)c2=O)cc1` (stereo not shown) [Example 164] to `O=C(Nc1ccc(-n2[nH]c3c(nnc4ccccc43)c2=O)cc1)NC1CN2CCC1CC2` (stereo not shown) [Example 169], the EC50 falls from greater than 10000 nM to less than 1000 nM.

First: C=C(C)CNC(=O)Nc1ccc(-n2[nH]c3c(nnc4ccccc43)c2=O)cc1 [Example 165]
Second: O=CCCNC(=O)Nc1ccc(-n2[nH]c3c(nnc4ccccc43)c2=O)cc1 [Example 170]
The EC50 of the first is lower: 1000 to 10000 nM for the first, greater than 10000 nM for the second.

`O=C(Nc1ccc(-n2[nH]c3c(nnc4ccccc43)c2=O)cc1)NC1CCOC1=O` (stereo not shown) [Example 166] and `CCC(C)NC(=O)Nc1ccc(-n2[nH]c3c(nnc4ccccc43)c2=O)cc1` (stereo not shown) [Example 167] fall in the same range of EC50: 1000 to 10000 nM for the first, 1000 to 10000 nM for the second.

Compared with `CCN(CC)CCCC(C)NC(=O)Nc1ccc(-n2[nH]c3c(nnc4ccccc43)c2=O)cc1` (stereo not shown) [Example 168], `COCC(C)NC(=O)Nc1ccc(-n2[nH]c3c(nnc4ccccc43)c2=O)cc1` (stereo not shown) [Example 174] is higher in EC50: less than 1000 nM for the first, 1000 to 10000 nM for the second. The first is the more potent here.

First: COc1ccc2[nH]cc(CCNC(=O)Nc3ccc(-n4[nH]c5c(nnc6ccccc65)c4=O)cc3)c2c1 [Example 172]
Second: O=C(NCCSCc1c(F)cccc1Cl)Nc1ccc(-n2[nH]c3c(nnc4ccccc43)c2=O)cc1 [Example 180]
The EC50 of the first is lower: 1000 to 10000 nM for the first, greater than 10000 nM for the second.

`CC(C)C(C)NC(=O)Nc1ccc(-n2[nH]c3c(nnc4ccccc43)c2=O)cc1` (stereo not shown) [Example 173] and `CCC(CC)NC(=O)Nc1ccc(-n2[nH]c3c(nnc4ccccc43)c2=O)cc1` [Example 187] fall in the same range of EC50: 1000 to 10000 nM for the first, 1000 to 10000 nM for the second.

`CCN(CC)CCCNC(=O)c1ccc(-n2[nH]c3c(nnc4ccccc43)c2=O)cc1` [Example 176] and `CN(C)CC(C)(C)CNC(=O)Nc1ccc(-n2[nH]c3c(nnc4ccccc43)c2=O)cc1` [Example 185] cannot be ordered by EC50: less than 1000 nM for the first, less than 1000 nM for the second.

Compared with `O=C(NCCCN1CCOCC1)Nc1ccc(-n2[nH]c3c(nnc4ccccc43)c2=O)cc1` [Example 179], `O=C(Nc1ccc(-n2[nH]c3c(nnc4ccccc43)c2=O)cc1)NC1CCOC1=O` (stereo not shown) [Example 195] is higher in EC50: less than 1000 nM for the first, 1000 to 10000 nM for the second.

First: CCOC(=O)CCC(NC(=O)Nc1ccc(-n2[nH]c3c(nnc4ccccc43)c2=O)cc1)C(=O)OCC (stereo not shown) [Example 189]
Second: CC(NC(=O)Nc1ccc(-n2[nH]c3c(nnc4ccccc43)c2=O)cc1)C1CCCCC1 (stereo not shown) [Example 194]
The EC50 of the first is lower: 1000 to 10000 nM for the first, greater than 10000 nM for the second.
